Assay results reported in the NIST ThermoML archive (doi:10.1016/j.jct.2017.07.016).

Experiment: xn = mol fraction of the nth substance listed
Conditions: 96.7 kPa, Liquid; for viscosity: Capillary tube (Ostwald / Ubbelohde) method; for mass density: Vibrating tube method

CCCCCCn1cc[n+](C)c1.[Cl-] [1-hexyl-3-methylimidazolium chloride] + CC(=O)N(C)C
Conditions	mass density [kg/m3]	viscosity [mPa·s]
303.15 K, x1 = 0.155	967.16	3.756
303.15 K, x1 = 0.301	989.75	14.88
303.15 K, x1 = 0.392	999.94	35.44
303.15 K, x1 = 0.503	1009.66	92.11
303.15 K, x1 = 0.63	1018.78	295.88
303.15 K, x1 = 0.794	1027.67	917.88
303.15 K, x1 = 0.887	1032.11	2891.3
303.15 K, x1 = 1	1036.07	5718.5
308.15 K, x1 = 0.155	962.92	3.352
308.15 K, x1 = 0.301	986.11	12.57
308.15 K, x1 = 0.392	996.46	28.6
308.15 K, x1 = 0.503	1006.34	70.17
308.15 K, x1 = 0.63	1015.69	212.96
308.15 K, x1 = 0.794	1024.64	624.84
308.15 K, x1 = 0.887	1029.11	1853.1
308.15 K, x1 = 1	1033.22	3430.8
313.15 K, x1 = 0.155	958.82	3.026
313.15 K, x1 = 0.301	982.47	10.74
313.15 K, x1 = 0.392	992.99	23.52
313.15 K, x1 = 0.503	1003.03	55.61
313.15 K, x1 = 0.63	1012.58	158.14
313.15 K, x1 = 0.794	1021.62	440.38
313.15 K, x1 = 0.887	1026.14	1212.9
313.15 K, x1 = 1	1030.38	2146.1
318.15 K, x1 = 0.155	954.87	2.739
318.15 K, x1 = 0.301	978.83	9.242
318.15 K, x1 = 0.392	989.54	19.54
318.15 K, x1 = 0.503	999.74	44.26
318.15 K, x1 = 0.63	1009.45	119.42
318.15 K, x1 = 0.794	1018.61	313.65
318.15 K, x1 = 0.887	1023.19	814.85
318.15 K, x1 = 1	1027.56	1390.4
323.15 K, x1 = 0.155	951	2.493
323.15 K, x1 = 0.301	975.21	8.018
323.15 K, x1 = 0.392	986.09	16.46
323.15 K, x1 = 0.503	996.46	35.84
323.15 K, x1 = 0.63	1006.33	91.95
323.15 K, x1 = 0.794	1015.58	229.39
323.15 K, x1 = 0.887	1020.2	563.41
323.15 K, x1 = 1	1024.75	928.1
328.15 K, x1 = 0.155	947.22	2.28
328.15 K, x1 = 0.301	971.59	7.038
328.15 K, x1 = 0.392	982.65	14
328.15 K, x1 = 0.503	993.19	29.41
328.15 K, x1 = 0.63	1003.22	71.92
328.15 K, x1 = 0.794	1012.63	171.63
328.15 K, x1 = 0.887	1017.33	400.32
328.15 K, x1 = 1	1021.92	638.79
333.15 K, x1 = 0.155	943.5	2.091
333.15 K, x1 = 0.301	967.98	6.213
333.15 K, x1 = 0.392	979.22	12.02
333.15 K, x1 = 0.503	989.93	24.45
333.15 K, x1 = 0.63	1000.11	57.41
333.15 K, x1 = 0.794	1009.73	130.32
333.15 K, x1 = 0.887	1014.53	291.17
333.15 K, x1 = 1	1019.13	453.59
338.15 K, x1 = 0.155	939.77	1.931
338.15 K, x1 = 0.301	964.37	5.522
338.15 K, x1 = 0.392	975.8	10.41
338.15 K, x1 = 0.503	986.68	20.82
338.15 K, x1 = 0.63	997.03	46.28
338.15 K, x1 = 0.794	1006.85	101.08
338.15 K, x1 = 0.887	1011.76	216.49
338.15 K, x1 = 1	1016.38	327.52
343.15 K, x1 = 0.155	935.94	1.786
343.15 K, x1 = 0.301	960.77	4.918
343.15 K, x1 = 0.392	972.39	9.14
343.15 K, x1 = 0.503	983.44	17.42
343.15 K, x1 = 0.63	993.95	37.9
343.15 K, x1 = 0.794	1003.99	79.83
343.15 K, x1 = 0.887	1009.01	163.62
343.15 K, x1 = 1	1013.65	243.04
348.15 K, x1 = 0.155	932.05	1.658
348.15 K, x1 = 0.301	957.18	4.443
348.15 K, x1 = 0.392	968.98	8.018
348.15 K, x1 = 0.503	980.22	14.93
348.15 K, x1 = 0.63	990.89	31.38
348.15 K, x1 = 0.794	1001.15	63.75
348.15 K, x1 = 0.887	1006.28	125.96
348.15 K, x1 = 1	1010.91	183.45
353.15 K, x1 = 0.155	928.09	1.542
353.15 K, x1 = 0.301	953.59	4.015
353.15 K, x1 = 0.392	965.58	7.115
353.15 K, x1 = 0.503	977	12.86
353.15 K, x1 = 0.63	987.84	26.46
353.15 K, x1 = 0.794	998.33	51.4
353.15 K, x1 = 0.887	1003.57	98.54
353.15 K, x1 = 1	1008.18	140.06

CCCCCCn1cc[n+](C)c1.[Cl-] [1-hexyl-3-methylimidazolium chloride] + CN(C)C=O
Conditions	mass density [kg/m3]	viscosity [mPa·s]
303.15 K, x1 = 0.134	974.15	2.479
303.15 K, x1 = 0.265	995.06	8.757
303.15 K, x1 = 0.352	1004.26	20.21
303.15 K, x1 = 0.457	1013.06	47.11
303.15 K, x1 = 0.591	1021.21	158.5
303.15 K, x1 = 0.764	1029.04	666.71
303.15 K, x1 = 0.871	1032.74	2341.7
303.15 K, x1 = 1	1036.07	5718.5
308.15 K, x1 = 0.134	970.01	2.265
308.15 K, x1 = 0.265	991.32	7.582
308.15 K, x1 = 0.352	1000.71	16.69
308.15 K, x1 = 0.457	1009.56	38
308.15 K, x1 = 0.591	1018.02	120.91
308.15 K, x1 = 0.764	1026.03	466.32
308.15 K, x1 = 0.871	1029.81	1478.3
308.15 K, x1 = 1	1033.22	3430.8
313.15 K, x1 = 0.134	965.87	2.075
313.15 K, x1 = 0.265	987.59	6.651
313.15 K, x1 = 0.352	997.11	14.24
313.15 K, x1 = 0.457	1006.09	30.89
313.15 K, x1 = 0.591	1014.86	92.58
313.15 K, x1 = 0.764	1023.06	333.82
313.15 K, x1 = 0.871	1026.9	1002.9
313.15 K, x1 = 1	1030.38	2146.1
318.15 K, x1 = 0.134	961.73	1.962
318.15 K, x1 = 0.265	983.87	5.854
318.15 K, x1 = 0.352	993.45	12.13
318.15 K, x1 = 0.457	1002.63	25.38
318.15 K, x1 = 0.591	1011.71	72.08
318.15 K, x1 = 0.764	1020.1	241.58
318.15 K, x1 = 0.871	1023.98	685.17
318.15 K, x1 = 1	1027.56	1390.4
323.15 K, x1 = 0.134	957.59	1.797
323.15 K, x1 = 0.265	980.14	5.212
323.15 K, x1 = 0.352	989.87	10.45
323.15 K, x1 = 0.457	999.19	21.15
323.15 K, x1 = 0.591	1008.57	57.17
323.15 K, x1 = 0.764	1017.14	178.79
323.15 K, x1 = 0.871	1021.09	479.12
323.15 K, x1 = 1	1024.75	928.1
328.15 K, x1 = 0.134	953.45	1.656
328.15 K, x1 = 0.265	976.43	4.647
328.15 K, x1 = 0.352	986.25	9.067
328.15 K, x1 = 0.457	995.78	17.82
328.15 K, x1 = 0.591	1005.44	45.82
328.15 K, x1 = 0.764	1014.17	135.89
328.15 K, x1 = 0.871	1018.25	344.77
328.15 K, x1 = 1	1021.92	638.79
333.15 K, x1 = 0.134	949.31	1.544
333.15 K, x1 = 0.265	972.72	4.175
333.15 K, x1 = 0.352	982.75	7.933
333.15 K, x1 = 0.457	992.43	15.17
333.15 K, x1 = 0.591	1002.31	37.41
333.15 K, x1 = 0.764	1011.21	104.75
333.15 K, x1 = 0.871	1015.42	253.05
333.15 K, x1 = 1	1019.13	453.59
338.15 K, x1 = 0.134	945.16	1.426
338.15 K, x1 = 0.265	969.01	3.776
338.15 K, x1 = 0.352	979.34	7.016
338.15 K, x1 = 0.457	989.15	13.04
338.15 K, x1 = 0.591	999.19	30.94
338.15 K, x1 = 0.764	1008.27	82.3
338.15 K, x1 = 0.871	1012.58	190.24
338.15 K, x1 = 1	1016.38	327.52
343.15 K, x1 = 0.134	941	1.328
343.15 K, x1 = 0.265	965.31	3.431
343.15 K, x1 = 0.352	975.92	6.246
343.15 K, x1 = 0.457	985.94	11.3
343.15 K, x1 = 0.591	996.09	25.86
343.15 K, x1 = 0.764	1005.34	65.58
343.15 K, x1 = 0.871	1009.75	143.98
343.15 K, x1 = 1	1013.65	243.04
348.15 K, x1 = 0.134	936.86	1.244
348.15 K, x1 = 0.265	961.62	3.135
348.15 K, x1 = 0.352	972.5	5.564
348.15 K, x1 = 0.457	982.8	9.895
348.15 K, x1 = 0.591	992.99	21.85
348.15 K, x1 = 0.764	1002.41	52.81
348.15 K, x1 = 0.871	1006.93	112.06
348.15 K, x1 = 1	1010.91	183.45
353.15 K, x1 = 0.134	932.7	1.171
353.15 K, x1 = 0.265	957.92	2.875
353.15 K, x1 = 0.352	969.09	5.007
353.15 K, x1 = 0.457	979.67	8.708
353.15 K, x1 = 0.591	989.9	18.59
353.15 K, x1 = 0.764	999.51	43.42
353.15 K, x1 = 0.871	1004.11	88.51
353.15 K, x1 = 1	1008.18	140.06
